According to US10983112B2, “Bile acid biomarkers for Niemann-Pick diseases, methods and uses therefor” (Washington University, priority 2014, dated 2021):

Columns and labels:
[1] = rat; cited from earlier work
Hep G2 cells = experiment: Biosynthesis of bile acids from cholestane-3β,5α,6β-triol in Hep G2 cells; assay type: in vitro ADME, human; conditions: 2.5 ng/mL, 24 h, conditioned medium
Procedure: To explore the biosynthetic route of the bile acids, the human hepatoblastoma-derived cell line Hep G2 was incubated with cholestane-3β,5α,6β-triol and 7,7,22,22,22-d4-cholestane-3β,5α,6β-triol. Hep G2 cells (1×10^6 cells/well) were seeded in a 6-well plate in triplicate and maintained in Dulbecco's modified Eagle's medium supplemented with 15% fetal calf serum and 100 U of penicillin G/mL and […] streptomycin sulfate at 37° C. in a humidified atmosphere with 5% CO2. Hep G2 cells were treated when they were 80% confluent. For the treatment, 100× stock solutions were made in DMSO for triol and d4-triol. DMSO concentration never exceeded 1% in the culture medium. […] The supernatant was transferred to a glass HPLC insert and analyzed immediately after preparation by the LC-MS/MS.
LC-MS/MS analysis was conducted on a Shimadzu (Columbia, Md.) Prominence UFLC system coupled with an Applied Biosystems/MDS Sciex (Ontario, Canada) 4000QTRAP mass spectrometer using multiple reaction monitoring (MRM). […] Data were acquired and analyzed by Analyst software (version 1.5.2). […] FIG. 40 depicts synthetic bile acid A detected by MRM transition m/z 407→407. FIG. 41 depicts bile acid A generated from cholestane-3β,5α,6β-triol in HepG2 cells and detected by MRM transition m/z 407→407. […]

[2] = Sample stability of bile acid B in dried blood spots, whole blood, processed samples, stock and working solutions; assay type: physicochemical
Procedure: Sample stability. The storage stability of dried blood spots and processed sample stabilities in the autosampler were determined at the LQC and HQC concentration levels (n=3). Storage stability of bile acid B in dried blood spots was tested at −20° C. and room temperature for 66 days, and at 37° C. for 90 hours. In the autosampler, stability was tested over seven days by injecting the first batch of the validation samples. The LQC and HQC in whole blood were placed on benchtop at room temperature for 27 hours and then spotted onto newborn screening cards to examine stability of bile acid B in whole blood. Stock solution stability was established by quantification of samples from dilution of two stock solutions that have been stored at −20° C. for 91 days and at room temperature on the bench for 22 hours, respectively, to the final solution (500 ng/mL in water). The storage stability of internal standard working solution was tested at room temperature for 12 days. A fresh standard curve was established each time. Bile acid B was stable in dried blood spots in newborn screening cards for up to 66 days at room temperature storage.
Stability in whole blood, dried blood spots, processed samples, stock and working solutions. The allowable time bile acid B spiked whole blood sample can remain at room temperature prior to spoiling on a newborn screening card was determined with LQC and HQC blood samples, which were remained at room temperature for 27 hours prior to spotting. Three replicates were assessed and the accuracy (within ±4.5% RE) and precision (<7.5% CV) were within the quality control acceptance criteria stated above. Bile acid B is therefore considered stable in whole blood for 27 hours prior to spotting.
The stability of bile acid B in dried blood spots on the newborn screening cards stored at room temperature and −20° C. for 66 days and at 37° C. for 90 hours was assessed by comparisons of three replicates of stored LQC and HQC against freshly prepared calibration standards and QC samples. […] Processed sample stability was assessed by re-injection of LQC and HQC together with calibration curve from one accuracy/precision run after storage in the autosampler at 4° C. for 7 days.
Stock solution stability of bile acid B and internal standard in acetonitrile-water (1:1) was established for 22 hours at room temperature. The internal standard in aqueous working solution (1% sodium dodecyl sulfate (SDS) and 50 mM trisodium citrate at pH 12) was stable for 12 days at room temperature.

SMILES | metabolite of cholestane-3β,5α,6β-triol [1] | formation from cholestane-3β,5α,6β-triol or d4-triol (Hep G2 cells) | stock solution stability ([2]; acetonitrile-water (1:1), room temperature) | processed sample stability ([2]; autosampler at 4° C. for 7 days) | stability in dried blood spots on newborn screening cards ([2]; room temperature) | stability in whole blood prior to spotting ([2]; room temperature, LQC and HQC) | stability in dried blood spots on newborn screening cards ([2]; room temperature, listed as bile acid B) | stability in dried blood spots on newborn screening cards ([2]; shipping conditions (37° C.)) | stability in dried blood spots on newborn screening cards ([2]; −20° C.)
C[C@H](CCC(=O)O)[C@H]1CCC2C3C[C@@H](O)[C@@]4(O)C[C@@H](O)CC[C@]4(C)C3CC[C@@]21C (stereo partly drawn) [Bile acid A, 3β,5α,6β-trihydroxycholanic acid] | major metabolite |  |  |  |  |  |  |  | 
C[C@H](CCC(=O)NCC(=O)O)[C@H]1CC[C@H]2[C@@H]3C[C@@H](O)[C@@]4(O)C[C@@H](O)CC[C@]4(C)[C@H]3CC[C@]12C [Bile acid B, N-(3β,5α,6β-trihydroxy-cholan-24-oyl)glycine] |  | No bile acid B was found | 22 h | Stability was demonstrated | up to 66 days | 27 h | at least 66 days | 90 h | at least 66 days
